Legend:
[1] = Evaluation 1: 20-μm pattern line width of transparent photosensitive composition; settings: for 20-μm pattern line width: transparent composition, initiator 0.4 mmol; for sensitivity to the active energy ray (in words): photopolymerization initiator containing the compound
Method: After that, the mixture was filtered with a membrane filter having an aperture of 5 μm to provide a photosensitive composition.
It should be noted that the fluorene-based compound as a photopolymerization initiator was used in such an amount that its molar quantity was kept constant in the respective examples and comparative examples.
The glass substrate after the application was dried with a fan dryer at 90° C. for 10 minutes. Thus, a coating film (photosensitive layer) was formed. Next, the film was exposed to light having an exposure energy quantity of 5 mJ/cm^2, 10 mJ/cm^2, 20 mJ/cm^2, 40 mJ/cm^2, 60 mJ/cm^2, or 80 mJ/cm^2 by using a high-pressure mercury lamp (manufactured by Karl Suss, trade name: “MASK ALIGNER”) through a negative mask (mask width: 20 μm). Next, the resultant was immersed in a 0.1 wt % aqueous solution of tetramethylammonium hydroxide (TMAH) and then rinsed with pure water. The remaining cured film was subjected to the following evaluation.
(§1) A larger value for the line width means higher sensitivity.

[2] = Decomposition point by thermal analysis (TG-DTA); type: physicochemical; settings: 5.0 mg
Method: The compounds 1, 2, 4, 6, 8, 9, 11, 12, 13, 15, 16, D-1, D-3, D-4, D-7, D-8, D-9, D-12, D-14, D-15, D-20, C-1, and C-2 were each subjected to measurement with a thermal analysis apparatus (TG-DTA) (manufactured by Rigaku Corporation, trade name: “Thermo Plus EVO TG 8120”) by using 5.0 mg thereof.

[3] = Absorption coefficient (absorbance of 0.001% solution in tetrahydrofuran); type: physicochemical; settings: for Λ max (absorption maximum wavelength): 0.001% (wt/vol) in tetrahydrofuran, from 280 nm to 400 nm; for Absorption coefficient at 365 nm / Absorption coefficient at Λ max: 0.001% (wt/vol) solution in tetrahydrofuran
Method: A 0.001% (wt/vol) solution of each of the compounds 1, 2, 4, 6, 8, 9, 11, 12, 13, 15, 16, D-1, D-3, D-4, D-7, D-8, D-9, D-12, D-14, D-15, D-20, C-1, and C-2 in tetrahydrofuran was prepared, and its absorbance was measured with a spectrophotometer (manufactured by Hitachi High-Technologies Corporation, trade name: “U-3900H”). An absorption maximum wavelength (Amax) at a wavelength of from 280 nm to 400 nm was read from an absorption spectrum obtained with the spectrophotometer.

[4] = Average transmittance of composition; type: physicochemical; settings: photosensitive composition, quartz cell, optical path length 1 cm
Method: The average transmittance (%) of each of the photosensitive resin compositions obtained in Examples 1 to 9, Examples 2-1 to 2-10, and Comparative Examples 1 and 2 in the range of from 400 nm to 700 nm was measured with a spectrophotometer (manufactured by Hitachi High-Technologies Corporation, trade name: “U-3900H”, quartz cell, optical path length; 1 cm).

[5] = Solubility in PGME, PGMEA and ethyl lactate; type: physicochemical; settings: room temperature; for Solubility Ethyl lactate: in 100 parts by weight of ethyl lactate; for Solubility PGMEA: in 100 parts by weight of propylene glycol monomethyl ether acetate; for Solubility PGME: in 100 parts by weight of propylene glycol monomethyl ether
Method: An evaluation for solubility was performed in accordance with the following evaluation criteria based on the dissolution amount.
A: 10 Parts by weight or more of the photopolymerization initiator is dissolved.
B: An amount in the range of from 5 parts by weight or more to less than 10 parts by weight of the photopolymerization initiator is dissolved.
C: An amount in the range of from 2 parts by weight or more to less than 5 parts by weight of the photopolymerization initiator is dissolved.
D: Less than 2 parts by weight of the photopolymerization initiator is dissolved.

[6] = Transmittance of transparent cured film; type: physicochemical; settings: cured at exposure energy quantity 80 mJ/cm^2
Method: Transparent cured films were formed by using the photosensitive compositions obtained in Examples 1 to 9, Examples 2-1 to 2-10, and Comparative Examples 1 and 2 in the same manner as in the evaluation 1 except that the exposure energy quantity was set to 80 mJ/cm^2. The transmittance (%) of each of the resultant transparent cured films at 400 nm and the average transmittance (%) thereof in the range of from 400 to 700 nm were measured with a spectrophotometer (manufactured by Hitachi High-Technologies Corporation, trade name: “U-3900H”, quartz cell, optical path length; 1 cm). A higher transmittance at 400 nm means less coloring with a yellow color. In addition, a higher transmittance of a coating film means a higher transmitting property of a pattern to be formed.

[7] = Evaluation 3: 20-μm pattern line width of black photosensitive composition; settings: black composition (carbon black, cardo resin), initiator 0.4 mmol
Excerpt: The mixture was filtered with a membrane filter having an aperture of 5 μm to provide a photosensitive composition.
Photosensitive compositions were each obtained in the same manner as in Example 10 except that the used fluorene-based compound and its usage were changed as shown in Table 5.
Each of the photosensitive compositions obtained in Examples 10 to 15, Examples 2-11 to 2-20, and Comparative Example 3 was applied onto a glass substrate with a spin coater (manufactured by Kyowariken Co., Ltd., trade name: “K-359SD1”) so that its thickness after drying became 1.0 μm. The glass substrate after the application was dried with a fan dryer at 90° C. for 10 minutes. Thus, a coating film (photosensitive layer) was formed. Next, the film was exposed to light having an exposure energy quantity of 10 mJ/cm^2, 20 mJ/cm^2, 40 mJ/cm^2, 60 mJ/cm^2, or 80 mJ/cm^2 by using a high-pressure mercury lamp (manufactured by Karl Suss, trade name: “MASK ALIGNER”) through a negative mask (mask width: 20 μm). Next, the resultant was immersed in a 0.1 wt % aqueous solution of tetra methyl ammonium hydroxide (TMAH) and then rinsed with pure water. The remaining cured film was subjected to the following evaluation. In addition, FIGS. 2, 3, and 6 show microscope photographs of black cured films obtained by using the photosensitive compositions of Examples 10 and 11, and Comparative Example 3, and FIGS. 7 to 11 show microscope photographs of black cured films obtained by using the photosensitive compositions of Examples 2-11, 2-13, 2-14, 2-17, and 2-18.
as §1

[8] = exposure energy quantity 10 mJ/cm^2
[9] = exposure energy quantity 20 mJ/cm^2
[10] = exposure energy quantity 40 mJ/cm^2
[11] = exposure energy quantity 60 mJ/cm^2
[12] = exposure energy quantity 80 mJ/cm^2

CCn1c2ccc(/C(=N\OC(C)=O)c3ccc(OC(C)COC)cc3C)cc2c2cc([N+](=O)[O-])ccc21 (stereo not drawn) [Compound C-2, reference compound]
20-μm pattern line width [1, 8]: 21.3 | 20-μm pattern line width [1, 9]: 22.3 | 20-μm pattern line width [1, 10]: 23.6 | 20-μm pattern line width [1, 11]: 23.5 | 20-μm pattern line width [1, 12]: 24.0 | Decomposition point [2]: 264.0 °C | Λ max (absorption maximum wavelength) [3]: 369.0 nm | Absorption coefficient at 365 nm [3]: 26.8 mL/mg/cm | Absorption coefficient at Λ max [3]: 27.2 mL/mg/cm | Average transmittance (700 nm to 400 nm) Solution [4]: 75.9% | Solubility Ethyl lactate [5]: C (An amount in the range of from 2 parts by weight or more to less than 5 parts by weight of the photopolymerization initiator is dissolved.) | Solubility PGMEA [5]: B (An amount in the range of from 5 parts by weight or more to less than 10 parts by weight of the photopolymerization initiator is dissolved.) | Solubility PGME [5]: C (An amount in the range of from 2 parts by weight or more to less than 5 parts by weight of the photopolymerization initiator is dissolved.) | Average transmittance (700 nm to 400 nm) Transparent cured film [6]: 95.1% | Transmittance (400 nm) Transparent cured film [6]: 72.7%

CCCC1(CCC)c2cc(C(=NOC(C)=O)c3ccccc3)ccc2-c2ccc([N+](=O)[O-])cc21 [Compound D-1]
sensitivity to the active energy ray (in words) [1]: additionally high sensitivity to the active energy ray | 20-μm pattern line width [1, 8]: 20.2 | 20-μm pattern line width [1, 9]: 20.9 | 20-μm pattern line width [1, 10]: 22.4 | 20-μm pattern line width [1, 11]: 22.8 | 20-μm pattern line width [1, 12]: 23.1 | Decomposition point [2]: 273.4 °C | Λ max (absorption maximum wavelength) [3]: 343.5 nm | Absorption coefficient at 365 nm [3]: 33.2 mL/mg/cm | Absorption coefficient at Λ max [3]: 54.1 mL/mg/cm | 20-μm pattern line width ([7]; 10 mJ/cm^2): 19.4 | 20-μm pattern line width ([7]; 20 mJ/cm^2): 20.4 | 20-μm pattern line width ([7]; 40 mJ/cm^2): 21.9 | 20-μm pattern line width ([7]; 60 mJ/cm^2): 22.3 | 20-μm pattern line width ([7]; 80 mJ/cm^2): 23.1 | Average transmittance (700 nm to 400 nm) Solution [4]: 57.5% | Solubility Ethyl lactate [5]: D (Less than 2 parts by weight of the photopolymerization initiator is dissolved.) | Solubility PGMEA [5]: C (An amount in the range of from 2 parts by weight or more to less than 5 parts by weight of the photopolymerization initiator is dissolved.) | Solubility PGME [5]: D (Less than 2 parts by weight of the photopolymerization initiator is dissolved.) | Average transmittance (700 nm to 400 nm) Transparent cured film [6]: 99.2% | Transmittance (400 nm) Transparent cured film [6]: 91.7%

CCCC1(CCC)c2cc(C(C)=NOC(C)=O)ccc2-c2ccc([N+](=O)[O-])cc21 [Compound D-3]
sensitivity to the active energy ray (in words) [1]: additionally high sensitivity to the active energy ray | 20-μm pattern line width ([1]; exposure energy quantity 5 mJ/cm^2): 19.6 | 20-μm pattern line width [1, 8]: 20.9 | 20-μm pattern line width [1, 9]: 21.4 | 20-μm pattern line width [1, 10]: 22.5 | 20-μm pattern line width [1, 12]: 23.8 | Decomposition point [2]: 272.2 °C | Λ max (absorption maximum wavelength) [3]: 345.5 nm | Absorption coefficient at 365 nm [3]: 46.3 mL/mg/cm | Absorption coefficient at Λ max [3]: 67.8 mL/mg/cm | 20-μm pattern line width ([7]; 10 mJ/cm^2): 19.6 | 20-μm pattern line width ([7]; 20 mJ/cm^2): 20.6 | 20-μm pattern line width ([7]; 40 mJ/cm^2): 21.6 | 20-μm pattern line width ([7]; 60 mJ/cm^2): 22.1 | 20-μm pattern line width ([7]; 80 mJ/cm^2): 22.6 | Average transmittance (700 nm to 400 nm) Solution [4]: 88.9% | Solubility Ethyl lactate [5]: D (Less than 2 parts by weight of the photopolymerization initiator is dissolved.) | Solubility PGMEA [5]: C (An amount in the range of from 2 parts by weight or more to less than 5 parts by weight of the photopolymerization initiator is dissolved.) | Solubility PGME [5]: D (Less than 2 parts by weight of the photopolymerization initiator is dissolved.) | Average transmittance (700 nm to 400 nm) Transparent cured film [6]: 99.8% | Transmittance (400 nm) Transparent cured film [6]: 95.2%

From US9684238B2, “Fluorene-type compound, photopolymerization initiator comprising said fluorene-type compound, and photosensitive composition containing said photopolymerization initiator” (TOKYO OHKA KOGYO CO., LTD., priority 2012, dated 2017)
